Key:
[1] = molecular target: LIM domain kinase 1 (Homo sapiens) (UniProt P53667); test: Inhibition of wild-type human full length LIMK1 (M1 to D647 residues) expressed in bacterial expression system assessed as residual activity at 1 uM by Kinomescan method relative to control
[2] = molecular target: Myosin light chain kinase, smooth muscle (Homo sapiens) (UniProt Q15746); test: Inhibition of wild-type human full length MYLK (M854 to E1845 residues) expressed in mammalian expression system assessed as residual activity at 1 uM by Kinomescan method relative to control
[3] = molecular target: Mitogen-activated protein kinase 4 (Homo sapiens) (UniProt P31152); test: Inhibition of wild-type human partial length ERK4 (M1 to L365 residues) expressed in bacterial expression system assessed as residual activity at 1 uM by Kinomescan method relative to control
[4] = molecular target: Cyclin-dependent kinase 15 (Homo sapiens) (UniProt Q96Q40); test: Inhibition of wild-type human full length PFTAIRE2 (M1 to W384 residues) expressed in bacterial expression system assessed as residual activity at 1 uM by Kinomescan method relative to control
[5] = molecular target: Mitogen-activated protein kinase 12 (Homo sapiens) (UniProt P53778); test: Inhibition of wild-type human full length p38-gamma (M1 to L367 residues) expressed in mammalian expression system assessed as residual activity at 1 uM by Kinomescan method relative to control
[6] = molecular target: Serine/threonine-protein kinase/endoribonuclease IRE1 (Homo sapiens) (UniProt O75460); test: Inhibition of wild-type human partial length ERN1 (S551 to E852 residues) expressed in mammalian expression system assessed as residual activity at 1 uM by Kinomescan method relative to control
[7] = test system: Receptor-type tyrosine-protein kinase FLT3 (Homo sapiens), P36888 [K663Q]; test: Inhibition of human partial length FLT3 K663Q mutant (V592 to Y969 residues) expressed in bacterial expression system assessed as residual activity at 1 uM by Kinomescan method relative to control
[8] = molecular target: Cyclin-dependent kinase 2 (Homo sapiens) (UniProt P24941); test: Inhibition of wild-type human full length CDK2 (M1 to L298 residues) expressed in bacterial expression system assessed as residual activity at 1 uM by Kinomescan method relative to control
[9] = molecular target: Ephrin type-A receptor 1 (Homo sapiens) (UniProt P21709); test: Inhibition of wild-type human partial length EPHA1 (V588 to I913 residues) expressed in bacterial expression system assessed as residual activity at 1 uM by Kinomescan method relative to control
[10] = Cmax in Sprague-Dawley rat at 10 mg/kg, po by LC-MS/MS method; type: ADME, organism-based; design: dose 10 mg/kg, route oral; details: in vivo
[11] = molecular target: Serine/threonine-protein kinase B-raf (Homo sapiens) (UniProt P15056); test: Inhibition of wild-type human partial length BRAF (S429 to E741 residues) expressed in mammalian expression system assessed as residual activity at 1 uM by Kinomescan method relative to control
[12] = test system: Epidermal growth factor receptor (Homo sapiens), P00533 [T790M]; test: Inhibition of human partial length EGFR T790M mutant (R669 to G1022 residues) expressed in mammalian expression system assessed as residual activity at 1 uM by Kinomescan method relative to control
[13] = test system: Tyrosine-protein kinase ABL1 (Homo sapiens), P00519 [F317L]; test: Inhibition of human phosphorylated ABL1 F317L mutant (S229 to K512 residues) expressed in mammalian expression system assessed as residual activity at 1 uM by Kinomescan method relative to control
[14] = test system: Phosphatidylinositol 4,5-bisphosphate 3-kinase catalytic subunit alpha isoform (Homo sapiens), P42336 [I800L]; test: Inhibition of human partial length PIK3CA I800L mutant (R108 to N1068 residues) expressed in mammalian expression system assessed as residual activity at 1 uM by Kinomescan method relative to control
[15] = molecular target: Dual specificity mitogen-activated protein kinase kinase 5 (Homo sapiens) (UniProt Q13163); test: Inhibition of wild-type human partial length MEK5 (L98 to P448 residues) expressed in mammalian expression system assessed as residual activity at 1 uM by Kinomescan method relative to control
[16] = molecular target: Serine/threonine-protein kinase Nek9 (Homo sapiens) (UniProt Q8TD19); test: Inhibition of wild-type human partial length NEK9 (P32 to R328 residues) expressed in bacterial expression system assessed as residual activity at 1 uM by Kinomescan method relative to control
[17] = molecular target: Tyrosine-protein kinase JAK3 (Homo sapiens) (UniProt P52333); test: Inhibition of wild-type human partial length JAK3 JH1 catalytic domain (I781 to S1124 residues) expressed in mammalian expression system assessed as residual activity at 1 uM by Kinomescan method relative to control
[18] = test system: Mast/stem cell growth factor receptor Kit (Homo sapiens), P10721 [D816V]; test: Inhibition of human partial length KIT D816V mutant (I571 to D952 residues) expressed in bacterial expression system assessed as residual activity at 1 uM by Kinomescan method relative to control
[19] = molecular target: Casein kinase I isoform gamma-3 (Homo sapiens) (UniProt Q9Y6M4); test: Inhibition of wild-type human full length CSNK1G3 (M1 to K447 residues) expressed in bacterial expression system assessed as residual activity at 1 uM by Kinomescan method relative to control
[20] = test system: Receptor-type tyrosine-protein kinase FLT3 (Homo sapiens), P36888 [D835V]; test: Inhibition of human partial length FLT3 D835V mutant (V592 to Y969 residues) expressed in bacterial expression system assessed as residual activity at 1 uM by Kinomescan method relative to control
[21] = molecular target: Serine/threonine-protein kinase N2 (Homo sapiens) (UniProt Q16513); test: Inhibition of wild-type human partial length PKN2 (E634 to C984 residues) expressed in bacterial expression system assessed as residual activity at 1 uM by Kinomescan method relative to control
OCI-AML-3 = test: Growth inhibition of human OCI-AML3 cells; type: functional; details: Homo sapiens, OCI-AML-3
[22] = molecular target: Cyclin-dependent kinase 13 (Homo sapiens) (UniProt Q14004); test: Inhibition of wild-type human partial length CDC2L5 (H675 to S1054 residues) expressed in mammalian expression system assessed as residual activity at 1 uM by Kinomescan method relative to control
[23] = molecular target: Ephrin type-A receptor 2 (Homo sapiens) (UniProt P29317); test: Inhibition of wild-type human partial length EPHA2 (T593 to V891 residues) expressed in bacterial expression system assessed as residual activity at 1 uM by Kinomescan method relative to control
[24] = molecular target: Serine/threonine-protein kinase TAO2 (Homo sapiens) (UniProt Q9UL54); test: Inhibition of wild-type human partial length TAOK2 (M1 to A320 residues) expressed in mammalian expression system assessed as residual activity at 1 uM by Kinomescan method relative to control
[25] = molecular target: Ribosomal protein S6 kinase alpha-4 (Homo sapiens) (UniProt O75676); test: Inhibition of wild-type human partial length C-terminal RPS6KA4 kinase domain 2 (M375 to T705 residues) expressed in mammalian expression system assessed as residual activity at 1 uM by Kinomescan method relative to control
Ribosomal protein S6 kinase alpha-4 (Homo sapiens), sequence (O75676 whole entry, looked up, the tested form may be a part): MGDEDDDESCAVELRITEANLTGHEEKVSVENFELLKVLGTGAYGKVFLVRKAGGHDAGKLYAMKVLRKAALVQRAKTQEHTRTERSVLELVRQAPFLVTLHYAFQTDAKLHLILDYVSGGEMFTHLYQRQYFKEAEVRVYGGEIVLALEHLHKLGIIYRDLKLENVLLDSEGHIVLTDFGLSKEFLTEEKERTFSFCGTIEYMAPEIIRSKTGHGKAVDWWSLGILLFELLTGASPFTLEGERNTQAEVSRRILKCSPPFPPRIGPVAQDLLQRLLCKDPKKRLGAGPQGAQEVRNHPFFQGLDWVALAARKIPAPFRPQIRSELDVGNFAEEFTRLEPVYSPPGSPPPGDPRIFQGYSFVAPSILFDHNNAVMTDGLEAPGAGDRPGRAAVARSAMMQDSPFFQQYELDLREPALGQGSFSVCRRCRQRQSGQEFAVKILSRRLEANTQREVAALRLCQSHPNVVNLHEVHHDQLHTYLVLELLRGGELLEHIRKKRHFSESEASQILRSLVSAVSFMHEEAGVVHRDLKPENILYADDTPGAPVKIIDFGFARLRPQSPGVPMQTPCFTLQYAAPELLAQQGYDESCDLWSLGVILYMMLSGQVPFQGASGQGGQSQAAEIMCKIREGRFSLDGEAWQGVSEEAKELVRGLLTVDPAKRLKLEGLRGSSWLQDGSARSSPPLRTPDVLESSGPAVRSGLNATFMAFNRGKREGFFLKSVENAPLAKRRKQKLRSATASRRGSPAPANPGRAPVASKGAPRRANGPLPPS

Cyclin-dependent kinase 15 (Homo sapiens), sequence (Q96Q40 whole entry, the tested form may be a part): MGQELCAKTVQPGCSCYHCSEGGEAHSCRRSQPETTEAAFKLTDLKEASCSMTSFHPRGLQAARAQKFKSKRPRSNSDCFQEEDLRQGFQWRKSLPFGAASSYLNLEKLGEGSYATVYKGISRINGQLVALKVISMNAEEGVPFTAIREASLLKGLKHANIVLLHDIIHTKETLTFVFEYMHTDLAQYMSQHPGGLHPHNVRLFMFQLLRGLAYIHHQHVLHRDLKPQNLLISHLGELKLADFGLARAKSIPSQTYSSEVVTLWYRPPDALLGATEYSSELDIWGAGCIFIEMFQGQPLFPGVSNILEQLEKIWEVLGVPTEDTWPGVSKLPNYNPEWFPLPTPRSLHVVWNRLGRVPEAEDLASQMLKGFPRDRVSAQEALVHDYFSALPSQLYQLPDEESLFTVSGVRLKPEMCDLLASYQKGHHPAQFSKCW
LIM domain kinase 1 (Homo sapiens), sequence (P53667 whole entry, looked up, the tested form may be a part): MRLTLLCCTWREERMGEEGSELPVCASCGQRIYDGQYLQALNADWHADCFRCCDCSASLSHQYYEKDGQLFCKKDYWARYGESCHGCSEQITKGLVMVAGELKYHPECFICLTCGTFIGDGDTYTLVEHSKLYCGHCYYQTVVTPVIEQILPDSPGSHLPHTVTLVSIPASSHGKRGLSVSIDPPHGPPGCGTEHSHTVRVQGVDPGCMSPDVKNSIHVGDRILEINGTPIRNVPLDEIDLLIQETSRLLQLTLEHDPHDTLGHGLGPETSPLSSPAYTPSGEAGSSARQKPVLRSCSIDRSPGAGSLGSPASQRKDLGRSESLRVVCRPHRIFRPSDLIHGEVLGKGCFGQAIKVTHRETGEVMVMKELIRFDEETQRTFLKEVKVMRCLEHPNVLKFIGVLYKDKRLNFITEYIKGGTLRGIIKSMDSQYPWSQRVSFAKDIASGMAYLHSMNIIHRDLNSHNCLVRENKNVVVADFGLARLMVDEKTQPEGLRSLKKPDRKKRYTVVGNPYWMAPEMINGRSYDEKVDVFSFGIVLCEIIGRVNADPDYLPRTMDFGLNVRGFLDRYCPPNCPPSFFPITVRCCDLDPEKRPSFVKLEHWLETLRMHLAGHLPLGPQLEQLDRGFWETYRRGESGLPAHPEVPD
Serine/threonine-protein kinase B-raf (Homo sapiens), sequence (P15056 whole entry, the tested form may be a part): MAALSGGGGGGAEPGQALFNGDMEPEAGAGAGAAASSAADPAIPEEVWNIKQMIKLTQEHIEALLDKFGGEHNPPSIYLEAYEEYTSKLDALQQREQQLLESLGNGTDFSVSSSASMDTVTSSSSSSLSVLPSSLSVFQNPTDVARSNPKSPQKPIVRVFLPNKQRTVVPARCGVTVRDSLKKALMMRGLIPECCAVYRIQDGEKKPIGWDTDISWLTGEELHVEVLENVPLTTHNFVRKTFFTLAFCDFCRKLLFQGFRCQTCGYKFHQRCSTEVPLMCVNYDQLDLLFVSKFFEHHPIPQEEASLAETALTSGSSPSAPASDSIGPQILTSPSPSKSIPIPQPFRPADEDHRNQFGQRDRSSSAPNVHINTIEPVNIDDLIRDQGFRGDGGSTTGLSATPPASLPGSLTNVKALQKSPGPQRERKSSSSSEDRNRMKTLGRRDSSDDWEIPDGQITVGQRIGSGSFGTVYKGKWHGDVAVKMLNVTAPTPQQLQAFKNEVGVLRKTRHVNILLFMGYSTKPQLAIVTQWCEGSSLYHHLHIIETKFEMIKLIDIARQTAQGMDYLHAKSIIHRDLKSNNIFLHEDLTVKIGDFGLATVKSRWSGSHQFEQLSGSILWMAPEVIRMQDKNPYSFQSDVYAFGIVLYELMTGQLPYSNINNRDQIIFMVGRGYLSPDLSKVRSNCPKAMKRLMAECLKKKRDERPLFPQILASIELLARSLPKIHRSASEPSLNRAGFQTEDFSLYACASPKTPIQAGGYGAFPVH
Mitogen-activated protein kinase 12 (Homo sapiens), sequence (P53778 whole entry, the tested form may be a part): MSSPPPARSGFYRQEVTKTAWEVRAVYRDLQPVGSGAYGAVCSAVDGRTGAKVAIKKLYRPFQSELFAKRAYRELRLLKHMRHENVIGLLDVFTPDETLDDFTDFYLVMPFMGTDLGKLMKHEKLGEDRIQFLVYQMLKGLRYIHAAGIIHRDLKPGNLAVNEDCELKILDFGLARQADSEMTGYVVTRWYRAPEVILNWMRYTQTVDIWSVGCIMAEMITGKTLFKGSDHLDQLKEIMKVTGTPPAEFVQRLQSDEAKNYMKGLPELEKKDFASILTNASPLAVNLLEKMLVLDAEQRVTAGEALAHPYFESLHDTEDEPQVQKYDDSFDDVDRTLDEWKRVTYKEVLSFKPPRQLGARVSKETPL
Tyrosine-protein kinase ABL1 (Homo sapiens), P00519 [F317L], sequence (P00519 whole entry F317L, the tested form may be a part, canonical isoform): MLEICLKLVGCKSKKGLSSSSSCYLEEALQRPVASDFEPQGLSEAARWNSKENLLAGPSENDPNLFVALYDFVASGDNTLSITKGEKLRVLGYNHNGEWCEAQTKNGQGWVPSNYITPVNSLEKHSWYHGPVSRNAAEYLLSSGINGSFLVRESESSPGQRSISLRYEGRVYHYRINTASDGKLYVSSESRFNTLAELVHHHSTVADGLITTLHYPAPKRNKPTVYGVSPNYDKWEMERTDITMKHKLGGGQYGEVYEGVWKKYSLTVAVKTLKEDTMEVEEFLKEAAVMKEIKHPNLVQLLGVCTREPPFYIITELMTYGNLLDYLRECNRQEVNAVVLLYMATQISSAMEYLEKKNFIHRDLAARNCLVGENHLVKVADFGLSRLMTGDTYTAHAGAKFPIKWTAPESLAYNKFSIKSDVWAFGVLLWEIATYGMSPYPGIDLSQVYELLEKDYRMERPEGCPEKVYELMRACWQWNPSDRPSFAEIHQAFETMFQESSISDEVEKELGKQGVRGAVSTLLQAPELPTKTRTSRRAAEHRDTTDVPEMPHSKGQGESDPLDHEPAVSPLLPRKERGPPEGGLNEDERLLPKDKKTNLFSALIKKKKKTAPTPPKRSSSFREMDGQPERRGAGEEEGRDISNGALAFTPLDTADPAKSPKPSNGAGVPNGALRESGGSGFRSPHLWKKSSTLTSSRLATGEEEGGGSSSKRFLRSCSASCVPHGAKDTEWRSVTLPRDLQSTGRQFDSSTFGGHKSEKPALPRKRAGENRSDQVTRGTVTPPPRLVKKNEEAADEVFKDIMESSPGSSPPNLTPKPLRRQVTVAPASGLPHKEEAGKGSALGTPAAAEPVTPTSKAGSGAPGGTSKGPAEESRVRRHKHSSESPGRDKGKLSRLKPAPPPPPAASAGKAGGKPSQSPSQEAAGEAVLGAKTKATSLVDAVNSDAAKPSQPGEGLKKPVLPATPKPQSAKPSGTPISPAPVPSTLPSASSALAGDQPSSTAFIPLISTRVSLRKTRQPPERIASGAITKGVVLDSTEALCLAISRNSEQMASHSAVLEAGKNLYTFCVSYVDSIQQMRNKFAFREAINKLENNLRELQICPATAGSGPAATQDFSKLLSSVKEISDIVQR
Casein kinase I isoform gamma-3 (Homo sapiens), sequence (Q9Y6M4 whole entry, looked up, the tested form may be a part, canonical isoform): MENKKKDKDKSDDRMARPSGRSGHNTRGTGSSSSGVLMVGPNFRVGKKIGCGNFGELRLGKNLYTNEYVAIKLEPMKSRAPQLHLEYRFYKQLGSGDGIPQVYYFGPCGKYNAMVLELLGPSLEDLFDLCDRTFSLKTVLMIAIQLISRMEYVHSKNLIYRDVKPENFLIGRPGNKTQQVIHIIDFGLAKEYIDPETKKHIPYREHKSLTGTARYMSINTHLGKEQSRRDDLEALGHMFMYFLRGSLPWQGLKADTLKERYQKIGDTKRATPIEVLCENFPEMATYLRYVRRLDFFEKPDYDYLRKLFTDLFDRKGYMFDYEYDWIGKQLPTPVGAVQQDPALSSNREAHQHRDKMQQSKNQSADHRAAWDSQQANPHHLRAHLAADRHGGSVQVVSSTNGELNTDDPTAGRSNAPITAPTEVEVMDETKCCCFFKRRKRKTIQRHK
Dual specificity mitogen-activated protein kinase kinase 5 (Homo sapiens), sequence (Q13163 whole entry, the tested form may be a part): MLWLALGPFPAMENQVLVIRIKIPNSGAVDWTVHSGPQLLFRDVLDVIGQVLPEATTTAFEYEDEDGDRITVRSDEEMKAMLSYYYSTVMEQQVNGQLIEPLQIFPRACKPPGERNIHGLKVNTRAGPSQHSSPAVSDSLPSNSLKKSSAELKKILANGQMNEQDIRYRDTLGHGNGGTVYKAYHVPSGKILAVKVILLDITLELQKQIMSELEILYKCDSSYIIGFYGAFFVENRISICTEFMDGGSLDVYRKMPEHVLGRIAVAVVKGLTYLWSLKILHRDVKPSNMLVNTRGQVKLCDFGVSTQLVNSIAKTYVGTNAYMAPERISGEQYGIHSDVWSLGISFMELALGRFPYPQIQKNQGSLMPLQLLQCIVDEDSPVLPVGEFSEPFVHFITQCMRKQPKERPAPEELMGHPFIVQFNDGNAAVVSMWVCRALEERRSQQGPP

For `C=CC(=O)Nc1cc(Nc2cc(-c3cccc(NC(=O)c4ccc(C(C)(C)C)cc4)c3C)cn(C)c2=O)ccc1C(=O)N1CCOCC1`, the Activity [1] was 86%, the Activity [2] was 100% and the Activity [3] was 95%. The Activity [4] was 97%, the Activity [5] was 100% and the Activity [6] was 100%. For the same molecule, the Activity [7] was 94%, the Activity [8] was 99% and the Activity [9] was 100%. It also gave a Cmax [10] of 32.8 ng/mL, an Activity [11] of 100% and an Activity [12] of 100%. It also gave an Activity [13] of 97%, an Activity [14] of 100% and an Activity [15] of 98%. For the same molecule, the Activity [16] was 98%, the Activity [17] was 79% and the Activity [18] was 92%. It also gave an Activity [19] of 90%, an Activity [20] of 70% and an Activity [21] of 93%. It also gave a GI50 (OCI-AML-3) of 3.8 µM, an Activity [22] of 100% and an Activity [23] of 87%. The Activity [24] was 89% and the Activity [25] was 100%.
